Where two headings read alike, the source gives them in different places.
What was measured:
HIV NL4.3 strain = assay: HIV infectivity assay, reporter cell line HeLa-CD4-LTR-LacZ, β-Gal activity (Tat protein inhibition); type: cell-based, HIV-1 (NL4.3); conditions: for IC50: Human immunodeficiency virus 1, read-out: Infectivity IC50, HeLa-CD4-LTR-LacZ
Procedure: (§1) Next, the activity of these leads against HIV infection was evaluated using the reporter cell line HeLa-CD4-LTR-LacZ, which stably expresses the β-galactosidase (β-Gal) gene under the control of the HIV 5′ LTR. The HIV NL4.3 strain was used for these studies and β-Gal activity was measured 72 hrs post infection (FIG. 3A). Cytotoxicity assays using Cell-Titer-Glo were performed in parallel to assess cell viability (FIG. 3A). […] Their anti-HIV activity was further assessed in acute replication of Jurkat T cells with the NL4.3 strain (FIG. 3A). […] These OM10.1 cells contain a single integrated wild-type provirus, while ACH-2 cells contain a single integrated provirus with a TAR mutation C37T, defective Tat-TAR feedback loop (FIG. 3B).

[1] = Cytotoxicity assay, Cell-Titer-Glo, HeLa-CD4-LTR-LacZ; conditions: human, hela-cd4-ltr-lacz cells, Infectivity CC50, HeLa-CD4-LTR-LacZ
Procedure: as §1

SMILES | IC50 (HIV NL4.3 strain; analogs of TT-44863 (Table 2)) | CC50 ([1]; analogs of TT-44863 (Table 2)) | IC50 (HIV NL4.3 strain; analogs of TT-44881 (Table 1)) | CC50 ([1]; analogs of TT-44881 (Table 1)) | further results
O=C(NCCCn1ccnc1)c1ccc(-n2cc(Br)cn2)cc1 [3-40] | – | – | – | – | IC50 (HIV NL4.3 strain; analogs of TT-44856 (Table 3)): > 100 µM; CC50 ([1]; analogs of TT-44856 (Table 3)): > 100 µM
COCCOc1ccccc1NC(=O)Cn1cccc(Cl)c1=O [compound 46631] | > 100 µM | > 100 µM | – | – | –
COc1ccc(Cl)cc1NC(=O)Cn1cc(C(F)(F)F)cc(Cl)c1=O [TT-46603] | 20 to 30 µM | 50 to 100 µM | – | – | decrease of potency vs TT-44863 (HIV NL4.3 strain; HeLa-CD4 cell NL4.3 infection assays): ~ 5 fold
CCc1cc(C(=O)NCCCN2CCCC2=O)nn1-c1ccccc1 [GB-13] | – | – | 10 to 20 µM | > 100 µM | –
O=C(NCCCN1CCCC1=O)c1nn(-c2ccccc2)c2ccc(F)cc12 [compound 46820] | – | – | 50 to 100 µM | > 100 µM | –
COc1ccc(C#N)cc1NC(=O)Cn1cc(C)cc(Cl)c1=O [compound 46946] | > 50 µM | > 50 µM | – | – | –
COc1ccc(NC(=O)Cn2cc(C(F)(F)F)cc(Cl)c2=O)cc1C(F)(F)F [compound 44] | > 100 µM | > 100 µM | – | – | –
O=C(NCCCN1CCCC1=O)c1cn(-c2ccccc2)c2ccc(F)cc12 [compound 46880] | – | – | 50 to 100 µM | 50 to 100 µM | –
CC(C)(C)OC(=O)COCCOCCOc1ccc(C(F)(F)F)cc1NC(=O)Cn1cc(C(F)(F)F)cc(Cl)c1=O [compound 47] | 50 to 100 µM | > 100 µM | – | – | –
COc1cc(C(F)(F)F)ccc1NC(=O)Cn1cccc(Cl)c1=O [compound 47171] | > 100 µM | > 100 µM | – | – | –
COc1ccc(C(F)(F)F)cc1NC(=O)Cn1cccc(F)c1=O [compound 46765] | > 100 µM | > 100 µM | – | – | –
COc1ccc(C(F)(F)F)cc1CNC(=O)Cn1cc(C(F)(F)F)cc(Cl)c1=O [compound 46875] | > 100 µM | > 100 µM | – | – | –
CCCN(CCCN1CCCC1=O)C(=O)c1cc(C)n(-c2ccccc2)n1 [GB-17] | – | – | > 100 µM | > 100 µM | –
O=C(NCCCN1CCCC1=O)c1c[nH]nc1C1CC1 [compound 46821] | – | – | > 100 µM | > 100 µM | –
CC(C)c1nn(-c2ccccc2)cc1C(=O)NCCCN1CCCC1=O [compound 47092] | – | – | > 100 µM | > 100 µM | –
COc1ccc(C(F)(F)F)cc1CNC(=O)Cn1cc(C)cc(Cl)c1=O [compound 46957] | > 50 µM | > 50 µM | – | – | –
Cc1ccc(C(F)(F)F)cc1NC(=O)Cn1cc(C(F)(F)F)cc(Cl)c1=O [compound 47001] | 1 to 10 µM | > 100 µM | – | – | –
COCCOc1ccccc1NC(=O)Cn1cc(C(F)(F)F)cc(Cl)c1=O [compound 46624] | > 100 µM | > 100 µM | – | – | –
O=C(NCCCN1CCCC1=O)c1nn(-c2ccccc2)c2c1CCCCC2 [GB-03] | – | – | > 100 µM | > 100 µM | –
O=C(Nc1ccccc1)c1c(NCCCN2CCCC2=O)c2ccccc2[nH]c1=O [compound 46827] | – | – | > 100 µM | > 100 µM | –
O=C(NCCCn1ccnc1)c1cc2cc(Cl)ccc2[nH]1 [3-41] | – | – | – | – | IC50 (HIV NL4.3 strain; analogs of TT-44856 (Table 3)): > 100 µM; CC50 ([1]; analogs of TT-44856 (Table 3)): > 100 µM
